Experimental data from patent US20120301562A1, “COMPOSITION FOR IMPROVING BLOOD CIRCULATION, CONTAINING EXTRACT OF LINDERA OBTUSILOBA AS ACTIVE INGREDIENT” (priority 2009, published 2012).

Columns and labels:
[1] = test system: platelet aggregation induced by collagen; assay: Inhibition of rat washed platelet aggregation induced by collagen (turbidimetric); type: cell-based; conditions: collagen 20 μg/mL, rat washed platelets
Description: (§1) Rats were paralyzed with ethyl ether and blood samples were collected from abdominal aorta with a syringe containing anticoagulant 0.15 M sodium citrate whose volume ratio is 1:9 compared with blood sample volume. Blood samples were centrifuged at 200×g for 10 min to obtain platelet rich plasma (PRP) as supernatant. PRP was centrifuged at 800×g for 15 min, and precipitated platelets were washed two times with a washing buffer (137 mM NaCl, 2.9 mM KCl, 1 mM MgCl2, 5 mM glucose, 12 mM NaHCO3, 0.34 mM Na2HPO4, 1 mM EDTA, 20 mM HEPES, 0.25% BSA, pH 7.4) and suspended in a suspension buffer (suspension buffer. 137 mM NaCl, 2.9 mM KCl, 1 mM MgCl2, 5 mM glucose, 12 mM NaHCO3, 0.34 mM Na2HPO4, 20 mM HEPES, 0.25% BSA, pH 7.4) to prepare washed platelets. Platelet numbers of washed platelets used in measurement of inhibitory effect on platelet aggregation were counted with a cell counter (cell counter. Hema-vet HV950FS, Drew Scientific, USA), and washed platelets were diluted with a buffer solution so as to adjust the platelet count to 3×10^8 platelets/mL. Since platelets are aggregated at low temperatures, the foregoing experiment was carried out at room temperature.
(§2) Inhibitory effect on rat platelet aggregation was measured by turbidimetric method using an aggrerometer (Chrono-Log Co., Ltd., Havertown, Pa., USA). Washed platelets were incubated at 37° C. for 3 min and treated with various concentrations of extracts. After 2 min, platelet aggregation was induced by a platelet aggregation-inducing substance, ADP (22 μM) or collagen (20 μg/mL). Platelet aggregation was measured for 10 min and the inhibition extent of platelet aggregation was calculated. Platelets which were not treated with extracts were used for control, and the inhibition extent of platelet aggregation was calculated using the following equation.
(§3) The inhibition extent of platelet aggregation=[(A−B)/A]×100 [Equation 1] • A: aggregation % of control • B: aggregation % of extract-treated platelets

[2] = test system: platelet aggregation induced by ADP; assay: Inhibition of rat washed platelet aggregation induced by ADP (turbidimetric); type: cell-based; conditions: ADP 22 μM, rat washed platelets
Description: as §1, §2, §3

thromboembolism = assay: Inhibitory effect on thromboembolism induced by collagen and epinephrine injected into the tail vein; type: in vivo, mouse; conditions: oral administration 1 h prior to collagen + epinephrine injection, mice
Description: Experimental thrombosis induction in animals was based on Diminno's method. When a platelet aggregation inducer is injected into a tail vein of a mouse, a large amount of thrombus formation is induced in the pulmonary artery to kill the animal, and by observing whether this can be recovered or not, the inhibition extent of thrombus formation is measured. A mixture solution of collagen (Chrono-Log, […]) and epinephrine (Chrono-Log, 2 μg/mouse) was prepared to be contained in 200 μL of physiological saline as a platelet aggregation inducer and injected into the tail vein of mice. Extract suspension or physiological saline was orally administered in proportion to body weight at 1 h prior to injection of the platelet aggregation inducer to investigate antithrombotic effect. The antithrombotic effect was calculated as percentage of the number of experimental animals protected from hind leg paralysis or death induced by the injection of platelet aggregation inducer. Antithrombotic effect of extracts was determined by observing whether recovery from the persistence of paralysis for 15 min or longer after injection, death, or paralysis occurred or not. The survival rate (%) of each group was calculated with the following equation.
The survival rate (%)=(D/C)×100 [Equation 2] • C: the number of animals to which collagen was precisely injected. • D: the number of survived animals among animals to which collagen was precisely injected.

SMILES: CC(=O)Oc1ccccc1C(=O)O [Aspirin]
- inhibition at 100 µg/mL ([1]; final concentration 0.1 mg/mL): 18.5%
- inhibition at 1000 µg/mL ([1]; final concentration 1 mg/mL): 51.9%
- inhibition at 10000 µg/mL ([1]; final concentration 10 mg/mL): 94.4%
- inhibition at 100 µg/mL ([2]; final concentration 0.1 mg/mL): 15.9%
- inhibition at 1000 µg/mL ([2]; final concentration 1 mg/mL): 52.3%
- inhibition at 10000 µg/mL ([2]; final concentration 10 mg/mL): 93.2%
- 1st (survived animals/injected animals, D/C) (thromboembolism; 1st experiment): 15/19
- 2nd (survived animals/injected animals, D/C) (thromboembolism; 2nd experiment): 9/20
- 3rd (survived animals/injected animals, D/C) (thromboembolism; 3rd experiment): 9/19
- Survival rate (%) (thromboembolism; (D/C)×100): 56%
- Sum (D/C) (thromboembolism; sum of three experiments): 33/58
